From paper PMC11802874, “The hypolipidemic effect of MI-883, the combined CAR agonist/ PXR antagonist, in diet-induced hypercholesterolemia model” (Nature Communications, 2025)
“And” between values parts separate entries of the source, which are not always exact repeats. Equal values may be shown once.

Columns and labels:
PPARδ/β = PPARδ/β (Homo sapiens, UniProt Q03181); assay: Luciferase reporter gene assay PPARδ/β, HepG2
Description: The luciferase reporter gene assays for FXR, LXRα, LXRβ, THα, GRα, PPARα, PPARδ/β, PPARγ, AhR, VD, ERα, ERβ and mouse Car are described in our recent paper[19]
(§1) Gal4-LBD constructs of tested nuclear receptors have been used together with pGL4.31[luc2P/GAL4UAS/Hygro] luciferase reporter construct and pRL-TK Renilla expression vector (both from Promega, Hercules, USA) in HepG2 cells transfected with Lipofectamine 2000 or 3000 reagents. For GRα and FXR receptors, full-length expression vectors have been used with pGRE-luc or pFXRE-luc luciferase constructs. For the aryl hydrocarbon receptor (AhR), p1A1-luc construct was used with only pRL-TK vector for transfection normalization. A dual reporter assay (Promega, Hercules, USA) was used to analyze both firefly and Renilla luciferase activities.
(§2) Gal4-LBD constructs of tested nuclear receptors have been used together with pGL5-luc luciferase reporter construct and pRL-TK Renilla expression vector in HepG2 cells transfected with Lipofectamine 2000 or 3000 reagents. For GRα and FXR receptors, full-length expression vectors have been used with pGRE-luc or pFXRE-luc luciferase constructs. For the aryl hydrocarbon receptor (AhR), p1A1-luc construct was used with only pRL-TK vector for transfection normalization. […] Bars represent means±S.D. (n=3).

[1] = test system: LS174T cells (endogenous PXR); assay: CYP3A4 mRNA RT-qPCR in LS174T cells
Description: LS174T human colon adenocarcinoma cells (RRID:CVCL_1384) were used in induction experiments with the subsequent CYP3A4 mRNA RT-qPCR analysis as they express functional endogenous PXR.

Human recombinant CYP3A4 = biological target: T1, Human recombinant CYP3A4 (Homo sapiens, UniProt P08684); assay: CYP450-Glo CYP3A4 enzymatic activity assay; assay type: biochemical; conditions: for Inhibition assays, CYP3A4 activity (replicates): log[Agonist]
T1 construct: purchased Promega; host or cells: baculovirus-infected insect cells
T1 sequence (P08684 whole entry): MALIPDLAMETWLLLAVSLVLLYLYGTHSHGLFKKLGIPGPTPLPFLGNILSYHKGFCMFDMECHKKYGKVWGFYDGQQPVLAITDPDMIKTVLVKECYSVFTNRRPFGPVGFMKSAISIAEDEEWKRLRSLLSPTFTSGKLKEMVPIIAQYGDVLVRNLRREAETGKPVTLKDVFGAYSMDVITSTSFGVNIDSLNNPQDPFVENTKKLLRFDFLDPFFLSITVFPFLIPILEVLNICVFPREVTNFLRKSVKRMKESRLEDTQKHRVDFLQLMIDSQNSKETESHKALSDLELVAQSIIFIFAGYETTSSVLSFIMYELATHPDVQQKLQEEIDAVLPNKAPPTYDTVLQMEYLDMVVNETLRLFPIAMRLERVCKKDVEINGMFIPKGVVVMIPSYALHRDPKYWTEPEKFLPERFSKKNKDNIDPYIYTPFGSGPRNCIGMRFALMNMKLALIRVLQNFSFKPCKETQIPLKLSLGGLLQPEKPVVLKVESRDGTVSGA
Text: Data are presented as means±S.D. from three independent measurements.

[2] = test system: humanized PXR-CAR-CYP3A4/3A7 mice, liver; assay: Liver enzymatic TG measurement (HFD study); assay type: in vivo, mouse
Description: The liver tissue (10 mg) was homogenized using a pre-cooled steel bead in 225 μL of methanol in TissueLyser II (30 Hz, 2 × 30 s) (Qiagen, Hilden, Germany). This was followed by the addition of 750 μL of ice-cold methyl tert-butyl ether. Samples were vortexed and incubated for 1 h on a rotating wheel. Next, 188 μL of LC/MS-grade water was added and, after vortexing, the mixture underwent a short incubation and centrifugation (14,000 × g, 4 °C, 3 min). The upper organic phase containing lipids was collected and 300 μL was transferred to a vial containing 40 μL of 10% Triton X-100 in methanol, followed by evaporation on a heating block with shaking function (300 rpm, 45 °C). LC/MS-grade water (100 μL) was added to the evaporated sample and the tube was vortexed (1000 rpm, 35 °C). The samples were measured using a TG assay (Beckman Coulter, Brea, CA, USA) and a glycerol assay (Randox laboratories, Crumlin, UK) on an AU480 biochemistry analyzer (Beckman Coulter, Brea, CA, USA). The glycerol value was subtracted from the TG value. Livers from seven (n = 7) vehicle-treated controls and ten (n = 10) MI-883-treated animals were used.

FXR = FXR (Homo sapiens, UniProt Q96RI1); assay: Luciferase reporter gene assay FXR, HepG2
Sequence of FXR (Q96RI1 whole entry): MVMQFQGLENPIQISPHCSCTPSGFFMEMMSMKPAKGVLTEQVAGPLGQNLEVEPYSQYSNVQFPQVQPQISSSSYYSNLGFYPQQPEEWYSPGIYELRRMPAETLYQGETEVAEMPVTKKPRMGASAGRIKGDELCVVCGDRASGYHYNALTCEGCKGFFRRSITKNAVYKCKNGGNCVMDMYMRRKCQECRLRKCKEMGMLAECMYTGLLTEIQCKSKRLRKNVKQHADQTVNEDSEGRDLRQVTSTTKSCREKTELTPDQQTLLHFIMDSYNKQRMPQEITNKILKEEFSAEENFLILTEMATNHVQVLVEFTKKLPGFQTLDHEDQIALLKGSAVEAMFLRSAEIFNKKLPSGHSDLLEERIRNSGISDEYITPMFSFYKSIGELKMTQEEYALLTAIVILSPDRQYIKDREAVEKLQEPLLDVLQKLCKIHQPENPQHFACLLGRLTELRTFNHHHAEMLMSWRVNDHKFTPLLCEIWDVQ
Description: as §1, §2

[3] = test system: primary human hepatocytes (PHH); assay: RT-qPCR mRNA expression in 2D primary human hepatocytes; conditions: for CYP2B6 mRNA, RT-qPCR, PHH (Fig. 1g), replicates: ctrl = 1
Description: The cells were cultivated as 2D monolayers according to the manufacturer’s protocol.
RT-qPCR was used to examine gene expression in 2D and 3D PHH, HepaRG cells, or in mouse liver or intestine (ileum) samples as we have described before[60]–[62].

[4] = MI-883 1 μM, 24 h, one value per donor

Sequence of PPARδ/β (Q03181 211-439 limits assumed): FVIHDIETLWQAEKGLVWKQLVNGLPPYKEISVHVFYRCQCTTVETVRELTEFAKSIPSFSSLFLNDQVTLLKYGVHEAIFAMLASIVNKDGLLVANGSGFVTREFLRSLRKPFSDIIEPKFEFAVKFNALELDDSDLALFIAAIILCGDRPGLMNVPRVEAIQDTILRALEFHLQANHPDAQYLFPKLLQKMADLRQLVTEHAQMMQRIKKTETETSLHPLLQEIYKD

NC(=O)c1cc(Cn2cc(-c3c(-c4ccc(Cl)cc4)nc4cc(F)ccn34)nn2)ccc1Cl [MI-883, 2-chloro-5-((4-(2-(4-chlorophenyl)-7-fluoroimidazo[1,2-a]pyridin-3-yl)-1H-1,2,3-triazol-1-yl)methyl)benzamide] was tested, and the “NRs assays: PPARd (relative to ctrl, replicates)” value (PPARδ/β) was 1.06 and 1.19 and 1.12, the “RT-qPCR in LS174T (Fig 1 l, CYP3A4 mRNA), replicates” value (shortened to “RT-qPCR in LS174T”) ([1]; Rif 1μM + MI-883 1μM) was 2.91 and 2.35 and 2.61 and the “RT-qPCR in LS174T” value ([1]; Rif 1μM + test compound 10μM) was 0.86 and 1.1 and 0.8. For the same compound, the “RT-qPCR in LS174T” value ([1]; Rif 10μM + MI-883 1μM) was 10.4 and 6.9 and 8.3, the “RT-qPCR in LS174T” value ([1]; Rif 10μM + MI-883 10μM) was 3.35 and 2.8 and 2.2 and the “RT-qPCR in LS174T” value ([1]; SR12813 1μM + MI-883 1μM) was 0.55 and 0.68 and 0.64. The “RT-qPCR in LS174T” value ([1]; SR12813 1μM + test compound 10μM) was 0.77 and 0.59 and 0.57, the “RT-qPCR in LS174T” value ([1]; single agent 1μM, ctrl = 1) was 0.45 and 0.96 and 0.51 and the “RT-qPCR in LS174T” value ([1]; single agent 10μM) was 0.59 and 0.57 and 0.55. The “inhibition of CYP3A4 activity” value (Human recombinant CYP3A4) was “weak inhibitor”, the “Inhibition assays, CYP3A4 activity (replicates)” value (“Inhibition assays” for short) (Human recombinant CYP3A4; M 0) was 106 and 134 and the “Inhibition assays” value (Human recombinant CYP3A4; M 0.5) was 69 and 79 and 81. The “Inhibition assays” value (Human recombinant CYP3A4; M 1) was 66 and 67 and 61, the “Inhibition assays” value (Human recombinant CYP3A4; M -0.5) was 128 and 118 and 132 and the “Inhibition assays” value (Human recombinant CYP3A4; M -1) was 126 and 125 and 123. For the same compound, the “Inhibition assays” value (Human recombinant CYP3A4; M -2) was 89 and 124, the “Inhibition assays” value (Human recombinant CYP3A4; M -2.5) was 100 and the “Inhibition assays” value (Human recombinant CYP3A4; M -3) was 100. For the same compound, the “Inhibition assays” value (Human recombinant CYP3A4; M -3.5) was 100, the “Inhibition assays” value (Human recombinant CYP3A4; M -4) was 100 and the “Inhibition assays” value (Human recombinant CYP3A4; M -4.5) was 100. The “TG accumulation in male livers, enzymatic assay” value [2] was “no significant impact”, the “NRs assays: FXR (relative to ctrl, replicates)” value (FXR) was 0.85 and 0.88 and 1.01 and the “CYP2B6 mRNA, RT-qPCR, PHH (Fig. 1g), replicates” value ([3]; 1 mM) was 6.40 and 7.90 and 6.20. The “CYP2B6 mRNA, RT-qPCR, PHH (Fig. 1g), replicates” value ([3]; 5mM) was 11.50 and 14.10 and 10.70, the “CYP2B6 mRNA in PHH 2 donors (Fig. 3c)” value ([3]; MI-883 1 μM + CITCO (5 μM)) was 18.7857 and 11.1982 and the “CYP3A4 mRNA in PHH 2 donors (Fig. 3c)” value ([3]; MI-883 1 μM + CITCO (5 μM)) was 1.145 and 0.8997. For the same compound, the “CYP2B6 mRNA in PHH 2 donors (Fig. 3c)” value ([3]; MI-883 1 μM + Rif (10 μM)) was 16.0019 and 18.4588, the “CYP2B6 mRNA in PHH 2 donors (Fig. 3c)” value [3, 4] was 9.7833 and 10.0129 and the “CYP3A4 mRNA in PHH 2 donors (Fig. 3c)” value [3, 4] was 1.152 and 1.035. For the same compound, the “CYP2B6 mRNA in PHH 2 donors (Fig. 3c)” value ([3]; MI-883 5 μM + CITCO (5 μM)) was 4.985 and 8.159, the “CYP2B6 mRNA in PHH 2 donors (Fig. 3c)” value ([3]; MI-883 5 μM + Rif (10 μM)) was 9.78 and 14.5843 and the “CYP2B6 mRNA in PHH 2 donors (Fig. 3c)” value ([3]; MI-883 10 μM + CITCO (5 μM)) was 1.856 and 2.089. For the same compound, the “CYP3A4 mRNA in PHH 2 donors (Fig. 3c)” value ([3]; MI-883 10 μM + CITCO (5 μM)) was 0.35 and 0.4582, the “CYP2B6 mRNA in PHH 2 donors (Fig. 3c)” value ([3]; MI-883 10 μM + Rif (10 μM)) was 2.674 and 5.134 and the “CYP3A4 mRNA in PHH 2 donors (Fig. 3c)” value ([3]; MI-883 10 μM + Rif (10 μM)) was 2.14 and 3.421. For the same compound, the “CYP2B6 mRNA in PHH 2 donors (Fig. 3c)” value ([3]; single agent 5 μM: MI-883, CITCO (5 μM) alone) was 17.2158 and 12.1241.
